Experimental data published in patent US11767319B2, “Crystalline forms of a selective c-kit kinase inhibitor” (Third Harmonic Bio, Inc., priority 2020, dated 2023).

Columns and labels:
Type in all cases: physicochemical
[1] = Competitive slurry experiments among anhydrates (IPA/IPAc); conditions: at RT and 50° C., IPA/IPAc slurries
Procedure: Competitive slurry experiments were performed in IPA/IPAc at RT/50° C. between anhydrates Form A of compound 1 and Form D of compound 1. Form A of compound 1 was added into each solvent to form a slurry at RT or 50° C. and was stirred for 2 h. The slurries were then filtered to obtain saturated solution. Around 10 mg each of Form A of compound 1 and Form D of compound 1 were added into each solution to form a mixed slurry at RT or 50° C. […] The formation of Form H^A of compound 1 is postulated to be caused by residual water in the solvents or due to ambient humidity (˜35% humidity during slurry experiments).

[2] = Slurry experiments in SGF; conditions: 37° C., 500 rpm
Procedure: About 200 mg of sodium chloride and about 100 mg Triton X-100 was weighted into a 100-mL volumetric flask. About 100 mL of purified water was added to the flask and the solution was sonicated until all solids were completely dissolved. 1 M HCl was added to adjust the pH to 1.8 and the solution was mixed well and the pH was checked with a pH meter.
Competitive slurry experiments were performed for Forms A, H^A, H^B, C and D in SGF. About 10 mg of each form was added into separate HPLC vials followed by addition of 1.0 mL SGF in order to form slurries. The slurries were heated to 37° C. and stirred at 500 rpm. After 2 h or 24 h, the samples were centrifuged and the solids were collected for XRPD testing.

[3] = Variable temperature XRPD of Form D; conditions: heating to 150° C. or cooling to 30° C. under N2 purge
Procedure: FIG. 2D depicts a variable temperature XRPD of Form D of compound 1. The variable temperature experiment was conducted to further investigate the weight loss observed in the TGA curve.

XRPD at 2 h ([2]; 2 h): transformed to Form C
XRPD at 24 h ([2]; 24 h): a mixture of Form C and an HCl salt form
form change in variable temperature XRPD [3]: no form change
SMILES: Cc1ccc(-c2noc([C@H]3C[C@@H]3F)n2)cc1NC(=O)c1cnc2ccccn12 [Form D, N-(5-(5-((1R,2S)-2-fluorocyclopropyl)-1,2,4-oxadiazol-3-yl)-2-methylphenyl)imidazo[1,2-a]pyridine-3-carboxamide]
relative thermodynamic stability [1]: thermodynamically more stable than Form A
